From ChEMBL document CHEMBL4049403, “Oligo-aspartic acid conjugates with benzo[c][2,6]naphthyridine-8-carboxylic acid scaffold as picomolar inhibitors of CK2” (Bioorg Med Chem, 2017)
Where a SMILES comes first, the peptide text is derived from it. The star is where a group is joined. X1 = O=C(O)c1ccc2c(c1)nc(OCCCCCCCCC(=O)*)c1ccncc12

Key:
[1] = target: RAC-alpha serine/threonine-protein kinase (Homo sapiens) (UniProt P31749); test: Inhibition of human PKBa assessed as residual activity at 1 uM in presence of [33P]ATP by filter binding assay relative to control
[2] = target: Aurora kinase B (Homo sapiens) (UniProt Q96GD4); test: Inhibition of human Aurora B assessed as residual activity at 1 uM in presence of [33P]ATP by filter binding assay relative to control
Sequence of Aurora kinase B (Homo sapiens) (Q96GD4 whole entry): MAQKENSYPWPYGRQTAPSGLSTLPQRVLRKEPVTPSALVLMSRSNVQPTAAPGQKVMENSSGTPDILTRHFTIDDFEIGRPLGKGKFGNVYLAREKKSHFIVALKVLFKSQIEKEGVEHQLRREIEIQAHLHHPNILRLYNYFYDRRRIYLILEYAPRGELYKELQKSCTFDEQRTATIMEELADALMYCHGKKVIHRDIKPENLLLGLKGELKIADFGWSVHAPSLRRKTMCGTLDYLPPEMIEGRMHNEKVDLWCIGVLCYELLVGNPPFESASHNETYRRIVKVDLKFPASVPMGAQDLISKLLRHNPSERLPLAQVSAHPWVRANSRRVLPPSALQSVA

[3] = target: Mitogen-activated protein kinase 14 (Homo sapiens) (UniProt Q16539); test: Inhibition of human p38a MAPK assessed as residual activity at 1 uM in presence of [33P]ATP by filter binding assay relative to control
Sequence of Mitogen-activated protein kinase 14 (Homo sapiens) (Q16539 whole entry): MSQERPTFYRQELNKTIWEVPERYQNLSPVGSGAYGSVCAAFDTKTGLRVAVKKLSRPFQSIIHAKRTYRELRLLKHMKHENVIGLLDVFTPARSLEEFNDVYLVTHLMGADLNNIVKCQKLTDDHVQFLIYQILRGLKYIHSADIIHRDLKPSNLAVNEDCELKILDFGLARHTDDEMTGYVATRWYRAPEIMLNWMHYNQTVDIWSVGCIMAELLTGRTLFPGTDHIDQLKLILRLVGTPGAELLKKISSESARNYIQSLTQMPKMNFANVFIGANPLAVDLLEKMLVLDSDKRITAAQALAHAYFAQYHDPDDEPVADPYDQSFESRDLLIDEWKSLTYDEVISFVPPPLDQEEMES

[4] = target: 3-phosphoinositide-dependent protein kinase 1 (Homo sapiens) (UniProt O15530); test: Inhibition of human PDK1 assessed as residual activity at 1 uM in presence of [33P]ATP by filter binding assay relative to control
[5] = target: Receptor-interacting serine/threonine-protein kinase 2 (Homo sapiens) (UniProt O43353); test: Inhibition of human RIPK2 assessed as residual activity at 1 uM in presence of 33P-ATP by filter-binding assay relative to control
Sequence of Receptor-interacting serine/threonine-protein kinase 2 (Homo sapiens) (O43353 whole entry): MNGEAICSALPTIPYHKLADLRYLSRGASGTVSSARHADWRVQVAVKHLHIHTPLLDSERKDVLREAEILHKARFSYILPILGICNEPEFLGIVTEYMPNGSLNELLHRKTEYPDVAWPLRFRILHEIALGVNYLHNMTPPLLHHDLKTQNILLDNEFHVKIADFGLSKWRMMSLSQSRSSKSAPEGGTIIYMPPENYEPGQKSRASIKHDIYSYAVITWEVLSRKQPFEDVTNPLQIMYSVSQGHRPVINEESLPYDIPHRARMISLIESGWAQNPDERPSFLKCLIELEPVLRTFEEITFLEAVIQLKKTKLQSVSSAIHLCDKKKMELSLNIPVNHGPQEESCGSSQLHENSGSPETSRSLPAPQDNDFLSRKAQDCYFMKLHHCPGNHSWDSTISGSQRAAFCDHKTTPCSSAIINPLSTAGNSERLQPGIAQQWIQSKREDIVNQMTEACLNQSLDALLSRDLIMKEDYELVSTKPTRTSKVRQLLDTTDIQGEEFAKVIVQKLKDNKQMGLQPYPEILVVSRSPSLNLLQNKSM

[6] = target: Mitogen-activated protein kinase 9 (Homo sapiens) (UniProt P45984); test: Inhibition of human JNK2 assessed as residual activity at 1 uM in presence of [33P]ATP by filter binding assay relative to control
[7] = target: Proto-oncogene tyrosine-protein kinase Src (Homo sapiens) (UniProt P12931); test: Inhibition of human Src assessed as residual activity at 1 uM in presence of [33P]ATP by filter binding assay relative to control
[8] = target: Serine/threonine-protein kinase Sgk1 (Homo sapiens) (UniProt O00141); test: Inhibition of human SGK1 assessed as residual activity at 1 uM in presence of [33P]ATP by filter binding assay relative to control
[9] = target: Dual specificity tyrosine-phosphorylation-regulated kinase 2 (Homo sapiens) (UniProt Q92630); test: Inhibition of human DYRK2 assessed as residual activity at 1 uM in presence of 33P-ATP by filter-binding assay relative to control
[10] = target: Serine/threonine-protein kinase Nek2 (Homo sapiens) (UniProt P51955); test: Inhibition of human NEK2a assessed as residual activity at 1 uM in presence of [33P]ATP by filter binding assay relative to control
[11] = target: Interleukin-1 receptor-associated kinase 1 (Homo sapiens) (UniProt P51617); test: Inhibition of human IRAK1 assessed as residual activity at 1 uM in presence of [33P]ATP by filter binding assay relative to control
[12] = target: Serine/threonine-protein kinase BRSK1 (Homo sapiens) (UniProt Q8TDC3); test: Inhibition of human BRSK1 assessed as residual activity at 1 uM in presence of 33P-ATP by filter-binding assay relative to control
Sequence of Serine/threonine-protein kinase BRSK1 (Homo sapiens) (Q8TDC3 whole entry): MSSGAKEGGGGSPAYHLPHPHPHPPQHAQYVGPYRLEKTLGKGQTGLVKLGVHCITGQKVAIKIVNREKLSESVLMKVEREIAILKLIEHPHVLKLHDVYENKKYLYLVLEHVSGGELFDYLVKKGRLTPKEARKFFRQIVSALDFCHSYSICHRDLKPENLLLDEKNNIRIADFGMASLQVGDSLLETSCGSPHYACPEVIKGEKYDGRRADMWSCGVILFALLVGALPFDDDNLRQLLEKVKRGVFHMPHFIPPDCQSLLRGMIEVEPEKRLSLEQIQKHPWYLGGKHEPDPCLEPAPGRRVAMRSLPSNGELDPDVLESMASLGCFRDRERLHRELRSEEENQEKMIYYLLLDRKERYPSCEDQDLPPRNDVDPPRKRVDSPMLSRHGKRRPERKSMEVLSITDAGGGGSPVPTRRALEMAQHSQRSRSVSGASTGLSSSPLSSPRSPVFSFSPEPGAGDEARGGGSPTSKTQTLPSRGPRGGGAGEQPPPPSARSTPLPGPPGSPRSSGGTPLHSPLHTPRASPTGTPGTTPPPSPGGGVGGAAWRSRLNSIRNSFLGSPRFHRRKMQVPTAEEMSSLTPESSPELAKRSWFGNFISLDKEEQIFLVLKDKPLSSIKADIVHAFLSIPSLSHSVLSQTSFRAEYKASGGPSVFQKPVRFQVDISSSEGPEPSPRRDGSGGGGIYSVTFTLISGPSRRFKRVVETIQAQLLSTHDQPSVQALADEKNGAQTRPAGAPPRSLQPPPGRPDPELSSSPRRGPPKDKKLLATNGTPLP

[13] = target: Dual specificity mitogen-activated protein kinase kinase 6 (Homo sapiens) (UniProt P52564); test: Inhibition of human MKK6 assessed as residual activity at 1 uM in presence of [33P]ATP by filter binding assay relative to control
Sequence of Dual specificity mitogen-activated protein kinase kinase 6 (Homo sapiens) (P52564 whole entry): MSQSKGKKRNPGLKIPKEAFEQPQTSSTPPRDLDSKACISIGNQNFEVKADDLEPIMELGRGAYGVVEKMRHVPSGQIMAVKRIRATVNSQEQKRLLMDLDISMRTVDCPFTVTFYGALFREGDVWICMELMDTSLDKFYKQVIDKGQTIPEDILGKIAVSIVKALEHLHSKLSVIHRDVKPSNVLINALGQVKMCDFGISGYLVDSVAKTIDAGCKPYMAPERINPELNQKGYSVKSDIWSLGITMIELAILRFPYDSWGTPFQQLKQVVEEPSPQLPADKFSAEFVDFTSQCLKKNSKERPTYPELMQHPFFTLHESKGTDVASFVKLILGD

[14] = target: Serine/threonine-protein kinase SIK2 (Homo sapiens) (UniProt Q9H0K1); test: Inhibition of human SIK2 assessed as residual activity at 1 uM in presence of [33P]ATP by filter binding assay relative to control
[15] = target: Tyrosine-protein kinase Yes (Homo sapiens) (UniProt P07947); test: Inhibition of human YES1 assessed as residual activity at 1 uM in presence of [33P]ATP by filter binding assay relative to control
[16] = target: Myosin light chain kinase, smooth muscle (Homo sapiens) (UniProt Q15746); test: Inhibition of human SmMLCK assessed as residual activity at 1 uM in presence of [33P]ATP by filter binding assay relative to control
[17] = target: Serine/threonine-protein kinase tousled-like 1 (Homo sapiens) (UniProt Q9UKI8); test: Inhibition of human TLK1 assessed as residual activity at 1 uM in presence of 33P-ATP by filter-binding assay relative to control
[18] = target: Ephrin type-B receptor 1 (Homo sapiens) (UniProt P54762); test: Inhibition of human EPHB1 assessed as residual activity at 1 uM in presence of [33P]ATP by filter binding assay relative to control
[19] = target: Mitogen-activated protein kinase kinase kinase 5 (Homo sapiens) (UniProt Q99683); test: Inhibition of human ASK1 assessed as residual activity at 1 uM in presence of [33P]ATP by filter binding assay relative to control
[20] = target: Mitogen-activated protein kinase 15 (Homo sapiens) (UniProt Q8TD08); test: Inhibition of human ERK8 assessed as residual activity at 1 uM in presence of 33P-ATP by filter-binding assay relative to control
[21] = target: MAP kinase-interacting serine/threonine-protein kinase 2 (Homo sapiens) (UniProt Q9HBH9); test: Inhibition of human MNK2 assessed as residual activity at 1 uM in presence of [33P]ATP by filter binding assay relative to control
[22] = target: CDK9/cyclin T1 (Homo sapiens) (UniProt O60563+P50750); test: Inhibition of human CDK9-CyclinT1 assessed as residual activity at 1 uM in presence of [33P]ATP by filter binding assay relative to control; type: protein-complex assay
[23] = target: Insulin receptor-related protein (Homo sapiens) (UniProt P14616); test: Inhibition of human IRR assessed as residual activity at 1 uM in presence of [33P]ATP by filter binding assay relative to control
[24] = target: Protein kinase C zeta type (Homo sapiens) (UniProt Q05513); test: Inhibition of human PKCZ assessed as residual activity at 1 uM in presence of [33P]ATP by filter binding assay relative to control
[25] = target: Dual specificity protein kinase TTK (Homo sapiens) (UniProt P33981); test: Inhibition of human TTK assessed as residual activity at 1 uM in presence of 33P-ATP by filter-binding assay relative to control
[26] = target: Fibroblast growth factor receptor 1 (Homo sapiens) (UniProt P11362); test: Inhibition of human FGFR1 assessed as residual activity at 1 uM in presence of [33P]ATP by filter binding assay relative to control
Sequence of Fibroblast growth factor receptor 1 (Homo sapiens) (P11362 22-822 limits assumed): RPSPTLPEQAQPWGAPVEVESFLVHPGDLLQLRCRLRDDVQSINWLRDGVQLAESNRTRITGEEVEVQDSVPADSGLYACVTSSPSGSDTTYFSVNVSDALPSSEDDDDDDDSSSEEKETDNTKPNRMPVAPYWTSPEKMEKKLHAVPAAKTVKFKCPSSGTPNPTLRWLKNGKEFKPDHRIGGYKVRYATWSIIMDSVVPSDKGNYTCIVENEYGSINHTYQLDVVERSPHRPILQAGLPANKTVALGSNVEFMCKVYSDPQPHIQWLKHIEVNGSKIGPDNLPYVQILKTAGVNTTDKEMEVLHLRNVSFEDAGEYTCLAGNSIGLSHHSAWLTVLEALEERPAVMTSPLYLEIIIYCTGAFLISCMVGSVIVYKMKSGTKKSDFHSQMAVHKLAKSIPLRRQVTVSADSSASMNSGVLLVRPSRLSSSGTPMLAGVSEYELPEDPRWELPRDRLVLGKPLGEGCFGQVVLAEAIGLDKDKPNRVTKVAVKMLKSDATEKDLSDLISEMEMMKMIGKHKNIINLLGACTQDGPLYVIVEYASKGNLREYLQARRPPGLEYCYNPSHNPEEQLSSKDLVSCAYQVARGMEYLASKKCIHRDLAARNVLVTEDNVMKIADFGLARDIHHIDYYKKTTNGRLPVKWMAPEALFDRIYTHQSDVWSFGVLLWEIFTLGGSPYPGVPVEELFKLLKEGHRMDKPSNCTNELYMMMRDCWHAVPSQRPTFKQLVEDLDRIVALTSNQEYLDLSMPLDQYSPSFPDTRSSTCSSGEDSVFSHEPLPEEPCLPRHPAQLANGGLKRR

[27] = target: Serine/threonine-protein kinase WNK1 (Homo sapiens) (UniProt Q9H4A3); test: Inhibition of human WNK1 assessed as residual activity at 1 uM in presence of [33P]ATP by filter binding assay relative to control
[28] = target: Testis-specific serine/threonine-protein kinase 1 (Homo sapiens) (UniProt Q9BXA7); test: Inhibition of human TSSK1 assessed as residual activity at 1 uM in presence of [33P]ATP by filter binding assay relative to control
Sequence of Testis-specific serine/threonine-protein kinase 1 (Homo sapiens) (Q9BXA7 whole entry): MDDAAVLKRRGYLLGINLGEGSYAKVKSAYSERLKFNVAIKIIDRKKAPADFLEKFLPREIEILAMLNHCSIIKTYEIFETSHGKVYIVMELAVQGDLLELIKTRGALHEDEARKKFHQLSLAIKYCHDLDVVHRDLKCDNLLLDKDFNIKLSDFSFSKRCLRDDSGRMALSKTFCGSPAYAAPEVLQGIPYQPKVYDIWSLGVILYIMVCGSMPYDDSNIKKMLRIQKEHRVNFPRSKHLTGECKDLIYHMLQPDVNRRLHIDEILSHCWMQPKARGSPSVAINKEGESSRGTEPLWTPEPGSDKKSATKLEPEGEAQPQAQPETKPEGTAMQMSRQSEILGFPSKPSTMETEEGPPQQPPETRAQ

[29] = target: Receptor tyrosine-protein kinase erbB-4 (Homo sapiens) (UniProt Q15303); test: Inhibition of human HER4 assessed as residual activity at 1 uM in presence of [33P]ATP by filter binding assay relative to control
Sequence of Receptor tyrosine-protein kinase erbB-4 (Homo sapiens) (Q15303 whole entry): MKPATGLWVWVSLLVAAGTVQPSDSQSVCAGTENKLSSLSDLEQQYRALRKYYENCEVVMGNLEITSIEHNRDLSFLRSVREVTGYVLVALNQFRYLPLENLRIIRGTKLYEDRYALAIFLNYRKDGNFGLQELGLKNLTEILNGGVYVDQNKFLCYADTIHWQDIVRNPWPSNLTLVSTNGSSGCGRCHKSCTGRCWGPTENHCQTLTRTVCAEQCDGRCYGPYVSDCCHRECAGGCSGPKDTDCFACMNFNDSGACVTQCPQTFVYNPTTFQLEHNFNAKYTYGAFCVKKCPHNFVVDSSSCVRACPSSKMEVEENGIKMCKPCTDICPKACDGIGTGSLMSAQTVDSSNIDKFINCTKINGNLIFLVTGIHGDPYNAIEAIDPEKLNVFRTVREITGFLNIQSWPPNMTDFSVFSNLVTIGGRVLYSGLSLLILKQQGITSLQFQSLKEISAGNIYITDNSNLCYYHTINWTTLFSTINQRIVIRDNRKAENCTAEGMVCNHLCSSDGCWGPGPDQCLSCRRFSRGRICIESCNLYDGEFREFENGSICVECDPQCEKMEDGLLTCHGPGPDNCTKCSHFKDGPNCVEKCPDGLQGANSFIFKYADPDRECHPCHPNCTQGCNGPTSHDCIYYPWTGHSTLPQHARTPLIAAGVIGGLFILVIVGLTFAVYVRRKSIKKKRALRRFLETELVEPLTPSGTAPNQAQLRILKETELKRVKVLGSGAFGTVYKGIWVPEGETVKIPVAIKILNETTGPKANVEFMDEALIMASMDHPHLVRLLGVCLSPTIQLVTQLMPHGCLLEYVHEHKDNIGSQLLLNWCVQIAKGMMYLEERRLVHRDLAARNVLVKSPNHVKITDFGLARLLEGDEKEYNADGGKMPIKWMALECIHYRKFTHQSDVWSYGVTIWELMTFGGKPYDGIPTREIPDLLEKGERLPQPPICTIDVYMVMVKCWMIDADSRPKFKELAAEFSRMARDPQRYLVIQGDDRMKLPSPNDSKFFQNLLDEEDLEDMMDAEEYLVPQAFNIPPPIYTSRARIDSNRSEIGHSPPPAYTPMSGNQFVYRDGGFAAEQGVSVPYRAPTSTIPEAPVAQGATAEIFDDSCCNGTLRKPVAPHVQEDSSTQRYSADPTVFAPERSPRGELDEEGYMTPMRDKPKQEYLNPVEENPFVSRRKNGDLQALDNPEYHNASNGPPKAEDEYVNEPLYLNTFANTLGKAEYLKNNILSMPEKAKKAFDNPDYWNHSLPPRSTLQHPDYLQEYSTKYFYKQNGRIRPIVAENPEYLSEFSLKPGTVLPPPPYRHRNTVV

SMILES: NCCCC[C@H](NC(=O)[C@H](CC(=O)O)NC(=O)[C@H](CC(=O)O)NC(=O)[C@H](CC(=O)O)NC(=O)[C@H](CC(=O)O)NC(=O)[C@H](CC(=O)O)NC(=O)[C@H](CC(=O)O)NC(=O)CCCCCCCCOc1nc2cc(C(=O)O)ccc2c2cnccc12)C(=O)O (X1-DDDDDDK-OH)
- Activity [1]: 89%
- Activity [2]: 86%
- Activity [3]: 89%
- Activity [4]: 84%
- Activity [5]: 39%
- Activity [6]: 79%
- Activity [7]: 67%
- Activity [8]: 84%
- Activity [9]: 5%
- Activity [10]: 76%
- Activity [11]: 97%
- Activity [12]: 63%
- Activity [13]: 74%
- Activity [14]: 99%
- Activity [15]: 91%
- Activity [16]: 98%
- Activity [17]: 63%
- Activity [18]: 89%
- Activity [19]: 118%
- Activity [20]: 10%
- Activity [21]: 85%
- Activity [22]: 108%
- Activity [23]: 92%
- Activity [24]: 95%
- Activity [25]: 48%
- Activity [26]: 92%
- Activity [27]: 96%
- Activity [28]: 84%
- Activity [29]: 90%
